In paper PMC7093416, “Selective USP7 inhibition elicits cancer cell killing through a p53-dependent mechanism” (Scientific Reports, 2020):

System: panel of 484 cancer cell lines
Experiment: PRISM cancer cell line profiling, 5 days
Assay type: cell-based
Set-up: AUC: unit not given beside the values
Protocol: Cancer cell line profiling was performed using the Broad’s PRISM platform. Cell treatment and data analysis were performed as described in Yu et al[42]. Raw Luminex signal was converted to AUC values for each cell line as described. The resulting AUC profile for each compound was modeled against DepMap using the limma package in R[71]. Because hotspot mutation analysis was performed against DepMap, TP53 annotations in Fig. 6c,d are directly from DepMap.

Compound `CN1CCN(CCC(=O)Nc2ccc3c(=O)n(CC4(O)CCN(C(=O)[C@H](CCCNC(=O)c5ccc6c(Cl)c7c(nc6c5)CCCC7)Cc5ccccc5)CC4)cnc3c2)CC1` [XL177B] has an AUC (8MGBA_CENTRAL_NERVOUS_SYSTEM) of 1.054, an AUC (22RV1_PROSTATE) of 1.093 and an AUC (42MGBA_CENTRAL_NERVOUS_SYSTEM) of 1.146. The AUC (253JBV_URINARY_TRACT) was 1.057, the AUC (253J_URINARY_TRACT) was 1.086 and the AUC (639V_URINARY_TRACT) was 1.062. For the same compound, the AUC (647V_URINARY_TRACT) was 1.143, the AUC (769P_KIDNEY) was 1.004 and the AUC (786O_KIDNEY) was 1.051. It also gave an AUC (5637_URINARY_TRACT) of 0.9181, an AUC (8305C_THYROID) of 1.192 and an AUC (8505C_THYROID) of 0.9816. It also gave an AUC (2313287_STOMACH) of 1.329, an AUC (A101D_SKIN) of 1.213 and an AUC (A172_CENTRAL_NERVOUS_SYSTEM) of 1.079. The AUC (A204_SOFT_TISSUE) was 1.022, the AUC (A375_SKIN) was 1.179 and the AUC (A549_LUNG) was 1.079. The AUC (A673_BONE) was 1.28, the AUC (A704_KIDNEY) was 1.217 and the AUC (A2058_SKIN) was 1.197. For the same compound, the AUC (A2780_OVARY) was 1.076, the AUC (ABC1_LUNG) was 1.075 and the AUC (ACCMESO1_PLEURA) was 0.9927. For the same compound, the AUC (ACHN_KIDNEY) was 1.273, the AUC (AGS_STOMACH) was 1.102 and the AUC (AN3CA_ENDOMETRIUM) was 1.099. The AUC (ASPC1_PANCREAS) was 1.162, the AUC (BC3C_URINARY_TRACT) was 1.114 and the AUC (BCPAP_THYROID) was 1.195. It also gave an AUC (BECKER_CENTRAL_NERVOUS_SYSTEM) of 1.058, an AUC (BEN_LUNG) of 1.091 and an AUC (BFTC905_URINARY_TRACT) of 1.11. For the same compound, the AUC (BFTC909_KIDNEY) was 1.1037, the AUC (BHT101_THYROID) was 1.056 and the AUC (BICR6_UPPER_AERODIGESTIVE_TRACT) was 0.9836. For the same compound, the AUC (BICR16_UPPER_AERODIGESTIVE_TRACT) was 1.161, the AUC (BICR31_UPPER_AERODIGESTIVE_TRACT) was 0.9322 and the AUC (BICR56_UPPER_AERODIGESTIVE_TRACT) was 0.9864. The AUC (BT474_BREAST) was 1.187, the AUC (BT549_BREAST) was 0.9575 and the AUC (BXPC3_PANCREAS) was 1.32. For the same compound, the AUC (CADOES1_BONE) was 1.116, the AUC (CAKI1_KIDNEY) was 1.162 and the AUC (CAL12T_LUNG) was 1. It also gave an AUC (CAL27_UPPER_AERODIGESTIVE_TRACT) of 1.104, an AUC (CAL29_URINARY_TRACT) of 1.1383 and an AUC (CAL51_BREAST) of 1.013. It also gave an AUC (CAL54_KIDNEY) of 1.167, an AUC (CAL62_THYROID) of 1.094 and an AUC (CAL78_BONE) of 1.0528. It also gave an AUC (CAL120_BREAST) of 0.9632, an AUC (CALU1_LUNG) of 0.8074 and an AUC (CALU6_LUNG) of 1.057. The AUC (CAMA1_BREAST) was 1.095, the AUC (CAOV3_OVARY) was 1.1 and the AUC (CAPAN2_PANCREAS) was 1.138. It also gave an AUC (CCFSTTG1_CENTRAL_NERVOUS_SYSTEM) of 0.9645, an AUC (CFPAC1_PANCREAS) of 1.136 and an AUC (CHL1_SKIN) of 1.081. It also gave an AUC (CJM_SKIN) of 1.284, an AUC (CL34_LARGE_INTESTINE) of 1.203 and an AUC (COLO668_LUNG) of 1.113. For the same compound, the AUC (COLO679_SKIN) was 1.002, the AUC (COLO680N_OESOPHAGUS) was 1.0645 and the AUC (COLO741_SKIN) was 1.159. It also gave an AUC (COLO783_SKIN) of 1.1, an AUC (COLO792_SKIN) of 1.078 and an AUC (COLO800_SKIN) of 1.008. For the same compound, the AUC (CORL23_LUNG) was 1.07, the AUC (CORL105_LUNG) was 1.1478 and the AUC (COV362_OVARY) was 1.091. It also gave an AUC (COV434_OVARY) of 0.9992, an AUC (DANG_PANCREAS) of 1.066 and an AUC (DAOY_CENTRAL_NERVOUS_SYSTEM) of 0.9946. For the same compound, the AUC (DBTRG05MG_CENTRAL_NERVOUS_SYSTEM) was 1.141, the AUC (DETROIT562_UPPER_AERODIGESTIVE_TRACT) was 1.072 and the AUC (DKMG_CENTRAL_NERVOUS_SYSTEM) was 1.0187. It also gave an AUC (DMS273_LUNG) of 1.134, an AUC (DU145_PROSTATE) of 1.137 and an AUC (DV90_LUNG) of 0.9062. The “∆ (AUC, TP53 mutation vs WT; decreased sensitivity)” value (DepMap TP53 mutation annotation) was “not significantly associated”, the AUC (EBC1_LUNG) was 1.133 and the AUC (ECGI10_OESOPHAGUS) was 1.109. The AUC (EFM192A_BREAST) was 0.9815, the AUC (EFO21_OVARY) was 1.192 and the AUC (EFO27_OVARY) was 1.165. For the same compound, the AUC (EN_ENDOMETRIUM) was 1.137, the AUC (ES2_OVARY) was 1.077 and the AUC (ESS1_ENDOMETRIUM) was 1.338. For the same compound, the AUC (EWS502_BONE) was 1.036, the AUC (FADU_UPPER_AERODIGESTIVE_TRACT) was 1.234 and the AUC (FTC133_THYROID) was 0.9765. It also gave an AUC (FTC238_THYROID) of 0.9864, an AUC (G292CLONEA141B1_BONE) of 1.035 and an AUC (G361_SKIN) of 1.116. It also gave an AUC (G401_SOFT_TISSUE) of 0.7376, an AUC (G402_SOFT_TISSUE) of 0.8902 and an AUC (GAMG_CENTRAL_NERVOUS_SYSTEM) of 1.162. It also gave an AUC (GB1_CENTRAL_NERVOUS_SYSTEM) of 1.065, an AUC (GCIY_STOMACH) of 0.9556 and an AUC (GCT_SOFT_TISSUE) of 1.093. The AUC (GI1_CENTRAL_NERVOUS_SYSTEM) was 0.984, the AUC (GMS10_CENTRAL_NERVOUS_SYSTEM) was 0.9403 and the AUC (GOS3_CENTRAL_NERVOUS_SYSTEM) was 0.9659. The AUC (GP2D_LARGE_INTESTINE) was 1.185, the AUC (H4_CENTRAL_NERVOUS_SYSTEM) was 1.05 and the AUC (HARA_LUNG) was 1.202. It also gave an AUC (HCC15_LUNG) of 1.143, an AUC (HCC38_BREAST) of 1.103 and an AUC (HCC44_LUNG) of 1.112. The AUC (HCC56_LARGE_INTESTINE) was 1.103, the AUC (HCC78_LUNG) was 1.106 and the AUC (HCC95_LUNG) was 1.096. The AUC (HCC366_LUNG) was 1.065, the AUC (HCC827_LUNG) was 0.9535 and the AUC (HCC1143_BREAST) was 1.163. The AUC (HCC1195_LUNG) was 0.8866, the AUC (HCC1359_LUNG) was 1.197 and the AUC (HCC1419_BREAST) was 1.107. It also gave an AUC (HCC1428_BREAST) of 0.9597.
